According to ChEMBL document CHEMBL5096167, “Recent advances in development of hetero-bivalent kinase inhibitors” (Eur J Med Chem, 2021):
Blank lines part the entries; values can stand above or below the compound they belong to.

Experiments:
[1] = biological target: Mitogen-activated protein kinase 7 (Mus musculus, UniProt Q9WVS8); assay: Activation of ERK5 in MEF cells; assay type: cell-based
[2] = biological target: Proto-oncogene tyrosine-protein kinase Src (Homo sapiens, UniProt P12931); assay: Irreversible inhibition of wild type c-Src (unknown origin) assessed as inhibition constant by fluorimetric assay
Sequence of Proto-oncogene tyrosine-protein kinase Src (Homo sapiens, UniProt P12931) (P12931 2-536 limits assumed): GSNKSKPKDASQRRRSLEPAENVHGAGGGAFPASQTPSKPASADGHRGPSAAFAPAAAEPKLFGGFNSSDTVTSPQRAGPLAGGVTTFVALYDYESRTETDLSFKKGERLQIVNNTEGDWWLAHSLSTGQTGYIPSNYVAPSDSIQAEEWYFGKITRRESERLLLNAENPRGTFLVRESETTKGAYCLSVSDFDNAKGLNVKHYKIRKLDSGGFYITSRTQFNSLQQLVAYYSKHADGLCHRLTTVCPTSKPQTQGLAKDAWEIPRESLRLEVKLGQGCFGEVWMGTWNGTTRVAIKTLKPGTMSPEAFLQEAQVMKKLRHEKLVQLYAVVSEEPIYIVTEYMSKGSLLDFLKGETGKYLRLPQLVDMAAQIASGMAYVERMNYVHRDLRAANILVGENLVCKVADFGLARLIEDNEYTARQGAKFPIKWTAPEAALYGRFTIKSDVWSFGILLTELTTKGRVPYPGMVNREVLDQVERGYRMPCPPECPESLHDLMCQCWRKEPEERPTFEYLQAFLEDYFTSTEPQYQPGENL

[3] = biological target: Proto-oncogene tyrosine-protein kinase Src (Gallus gallus, UniProt P00523); assay: Binding affinity to chicken 6-His tagged c-Src expressed in Escherichia coli Bl21 (DE3) assessed as dissociation constant

Sequence of Mitogen-activated protein kinase 7 (Q9WVS8 whole entry): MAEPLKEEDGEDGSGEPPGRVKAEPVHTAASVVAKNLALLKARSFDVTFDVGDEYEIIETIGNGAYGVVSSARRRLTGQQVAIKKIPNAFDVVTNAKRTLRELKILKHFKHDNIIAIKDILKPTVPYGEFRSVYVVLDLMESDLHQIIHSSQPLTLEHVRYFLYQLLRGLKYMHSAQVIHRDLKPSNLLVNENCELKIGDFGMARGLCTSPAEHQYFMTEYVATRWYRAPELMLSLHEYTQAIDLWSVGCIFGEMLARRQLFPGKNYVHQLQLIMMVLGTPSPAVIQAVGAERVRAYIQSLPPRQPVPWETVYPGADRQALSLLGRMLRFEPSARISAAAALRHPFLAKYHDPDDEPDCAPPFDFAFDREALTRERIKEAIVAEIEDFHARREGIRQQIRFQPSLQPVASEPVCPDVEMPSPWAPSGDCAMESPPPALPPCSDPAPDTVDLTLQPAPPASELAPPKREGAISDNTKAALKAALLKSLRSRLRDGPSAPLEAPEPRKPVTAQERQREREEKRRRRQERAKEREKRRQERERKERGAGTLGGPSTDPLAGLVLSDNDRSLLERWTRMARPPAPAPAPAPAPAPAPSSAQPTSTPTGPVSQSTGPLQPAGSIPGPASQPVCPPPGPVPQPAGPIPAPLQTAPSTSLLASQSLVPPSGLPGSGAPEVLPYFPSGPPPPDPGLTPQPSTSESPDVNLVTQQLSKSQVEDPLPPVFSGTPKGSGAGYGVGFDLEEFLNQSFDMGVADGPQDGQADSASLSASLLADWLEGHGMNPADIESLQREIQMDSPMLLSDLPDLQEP

IC50 [1]: 120 nM
SMILES: CN1CCN(c2cnc3c(C4CCN(C(=O)c5ccc(OC(F)(F)F)cc5N)CC4)ncnc3c2)CC1 [BAY-885]

Ki [2]: 20 nM
SMILES: O=C(CCS)Nc1cccc(Nc2nccc(Nc3cc(C4CC4)[nH]n3)n2)c1

Kd [3]: 0.28 nM
SMILES: CCC(C)[C@@H](NC(=O)[C@@H](CCC(=O)O)NC(=O)[C@@H](CCC(=O)O)NC(=O)[C@@H](CCC(=O)O)NC(C)=O)C(=O)N[C@H](Cc1ccc(NC(=O)CCCCCn2cc(-c3ccc(-n4nc(-c5ccc(Cl)cc5)c5c(N)ncnc54)cc3)nn2)cc1)C(=O)NCC(=O)N[C@H](CCC(=O)O)C(=O)N[C@H](Cc1ccccc1)C(=O)N[C@H](CCC(=O)O)C(=O)N[C@H](C)C(N)=O (stereo partly drawn)
